Data taken from patent publication US6613351B1, “Compound capable of introducing at least one molecule into a cell” (Biotech Tools S.A., priority 1993, dated 2003).

Legend:
[1] = tested on: K562 cells; experiment: Transfection of K562 suspension cells with CAT plasmid, CAT assay; type: cell-based, human; settings: 3 h incubation, medium with serum
Experimental: (§1) 5 μg of plasmid DNA and 11 μg (11 μl) of pure diC14-amidine suspension (for 25 μg (25 μl) of diC14-amidine/PE suspension (see example 2)) are separately diluted in a final volume of 50 μl with distilled water and sterilized. Both solutions are then mixed and incubated for 15 min at room temperature.
The suspension containing the complex (diC14-amidine-DNA or diC14-amidine/PE-DNA) is gently mixed with 10 ml of medium. The mixture thus formed constitutes the “transfection medium”. Aliquots of 10^6 cells are centrifuged and the pellets are resuspended in the transfection medium. The cell suspensions are distributed into 100 mm culture dishes. The suspensions are incubated for the desired period; after incubation, the cells are centrifuged and resuspended in 10 ml of fresh medium and then cultured normally.
(§2) CHO (Chinese Hamster Ovary) cells are cultured in F12 medium supplemented with 1% glutamine and 1% penicillin/streptomycin and containing 10% FCS (Fetal Calf Serum, K562 (human myeloid) cells are cultured in RFMI medium supplemented with antibiotics and non-essential amino acids and containing 10% FCS (0.5-1×10^6 cells/ml). Both cell lines are cultured under a CO2 atmosphere (37° C., 5% CO2).
(§3) The plasmid used is derived from the commercial plasmid pCMV5 into which the bacterial replication origin S1, the ampicillin resistance gene and the CAT gene of bacterial origin have been inserted. It is approximately 5000 base pairs in size and is stored at a concentration of 1 mg/ml.
[…] The CHO cells (adherent) are plated in the 6-well culture dishes the day before the experiment in an amount of 10^6 cells/well; while the K562 cells (in suspension) are used in an amount of 10^6 cells per experiment.
(§4) The incubation was carried out for 3 h for the two cell lines. The transfection medium is the normal culture medium (with serum) with which vesicle vector (pure diC14-amidine or diC14-amidine/PE/DNA) has been mixed under the conditions described in the general procedure.
After incubation, the cells are treated as described above; the CHO cells are transferred after 6 h into 100 mm culture dishes. The two cell lines continue to grow for 36 h before the CAT assay performed as described by Gorman et al., B.H. (1982), Mol. Cell. Biol. 2, 1044-1051; in brief, the cell lysates are incubated at 37° C. with [^14C]chloramphenicol and acetyl CoA for 2 h and extracted with ethyl acetate. […] The acetylation of chloramphenicol is determined by autoradiography on the chromatograms and counting of the spots on the plate.
(§5) Table 5 below gives the comparison of the transfection efficiency of the CAT gene for diC14 and the product DOTAP® marketed by Boehringer Mannheim, expressed as percentage of acetylated chloramphenicol in the cellular extract, under identical experimental conditions.

[2] = tested on: CHO cells; experiment: Transfection of adherent CHO cells with CAT plasmid, CAT assay; type: cell-based, Chinese Hamster; settings: for transfection efficiency of the CAT gene, percentage of acetylated chloramphenicol in the cellular extract: adherent cells (CHO), 3 h incubation, medium with serum
Experimental: as §1
The cells are cultured in 6-well culture dishes until they are 80-90% confluent.
The suspension containing the complex (diC14-amidine-DNA or diC14-amidine/PE-DNA) is gently mixed with 2 ml of culture medium. The culture medium used for the transfection operation is identical to the usual culture medium for the cells to be transformed. The medium is prepared with 2.5% or without serum.
The mixture thus formed constitutes the “transfection medium”. The cells (about 10^6) are washed with the culture medium and the transfection medium is added. The medium is incubated for the desired period. This period may depend on the cell line to be transfected but an incubation time of 2-3 h is generally used. After incubation, the transfection medium is replaced with fresh medium; 6 hours later, the cells can be […] into 100 mm culture dishes.
as §2, §3
The general procedure described above was followed; 5 μg (5 μl) of plasmid DNA and 11 μg (11 μl) of pure diC14-amidine suspension (or 25 μg (25 μl) of diC14-amidine/PE suspension) prepared as described above are used. The CHO cells (adherent) are plated in the 6-well culture dishes the day before the experiment in an amount of 10^6 cells/well; while the K562 cells (in suspension) are used in an amount of 10^6 cells per experiment.
as §4
After incubation, the cells are treated as described above; the CHO cells are transferred after 6 h into 100 mm culture dishes. The two cell lines continue to grow for 36 h before the CAT assay performed as described by Gorman et al., B.H. (1982), Mol. Cell. Biol. 2, 1044-1051; in brief, the cell lysates are incubated at 37° C. with [^14C]chloramphenicol and acetyl CoA for 2 h and extracted with ethyl acetate. The organic phase is eluted by TLC (thin-layer chromatography) with chloroform/methanol 95:5. The acetylation of chloramphenicol is determined by autoradiography on the chromatograms and counting of the spots on the plate.
as §5

[3] = vector composition 2 + 5 (μg) plasmid DNA + cationic vesicles
[4] = vector composition 5 + 10 (μg) plasmid DNA + cationic vesicles

CCCCCCCC/C=C\CCCCCCCC(=O)OCC(C[N+](C)(C)C)OC(=O)CCCCCCC/C=C\CCCCCCCC.COS(=O)(=O)[O-] (stereo not drawn) [DOTAP, N-(2,3-dioleoyloxy)propyl-N,N,N-trimethylammonium methyl sulfate, reference compound]
transfection efficiency of the CAT gene, percentage of acetylated chloramphenicol in the cellular extract [1, 3]: 29% | transfection efficiency of the CAT gene, percentage of acetylated chloramphenicol in the cellular extract [1, 4]: 36% | transfection efficiency of the CAT gene, percentage of acetylated chloramphenicol in the cellular extract [2, 3]: 32% | transfection efficiency of the CAT gene, percentage of acetylated chloramphenicol in the cellular extract [2, 4]: 40%

CCCCCCCCCCCCCCN=C(CCNCCCCCCCCCCCCCC)NC(C)(C)C [diC14-t-but, 3-tetradecylamino-N-tert-butyl-N′-tetradecylpropionamidine]
transfection efficiency of the CAT gene, percentage of acetylated chloramphenicol in the cellular extract [1, 3]: 60% | transfection efficiency of the CAT gene, percentage of acetylated chloramphenicol in the cellular extract [1, 4]: 68% | transfection efficiency of the CAT gene, percentage of acetylated chloramphenicol in the cellular extract [2, 3]: 63% | transfection efficiency of the CAT gene, percentage of acetylated chloramphenicol in the cellular extract [2, 4]: 65% | quantities needed for transfection efficiencies relative to available commercial products ([2]; compared with DOTAP (Boehringer Mannheim) and Lipofectin (Gibco BRL), CHO and K562 cells): two to three times lower
